Assay results published in patent US12678507B2, “Protein tyrosine kinase 6 (PTK6) degradation / disruption compounds and methods of use” (Icahn School of Medicine at Mount Sinai, priority 2018, dated 2026).

Columns and labels:
PTK6 [1] = target: T1, PTK6 (Homo sapiens, UniProt Q13882); experiment: Western blot of PTK6 protein levels in MDA-MB231 cells; format: cell-based; details: MDA-231 (MDA-MB231) cells, 500 nM, 24 hours, Western blot (FIGS. 3-5)
T1 construct: endogenous in cells; host or cells: MDA-MB231 cells (ATCC)
Description: FIGS. 2-5. Effects of exemplary compounds on reducing PTK6 protein levels in breast cancer cells. Triple negative MDA-MB231 cells were treated for 24 hours with 500 nM, 2 uM or 2.5 uM of test compound and lysed. Proteins were resolved by SDS/PAGE and immunoblotted with antibody to PTK6 (Santa Cruz, Cell Signaling) or GAPDH loading control (Cell Signaling).
FIG. 13. PTK6 degraders suppress PTK6 expression. MDA-MB231 cells were treated with compounds (500 nM or 1 uM) for 24 hours in monolayer cultures. Cells were lysed and lysates were probed with anti-PTK6 antibody.
MDA-MB231 cells were treated with DMSO or indicated compounds at 2.5 uM, 2 uM or 500 nM for 24 hours.
MDA-MB231 cells were treated with compounds (500 nM or 1 uM) for 24 hours in monolayer cultures. Cells were lysed and lysates were probed with anti-PTK6 antibody.
(§1) Cells were lysed in 1% NP-40 lysis buffer containing NaF, Na3VO4, Leupeptin, PMSF, aprotinin, and phosphatase inhibitor (PhosSTOP, Roche) as described previously (Irie et al., 2010). Cleared cell lysates were stored at −80° C. and were analyzed by western analysis as described previously (Irie et al., 2010).

MDA-MB231 cells = experiment: 3D Matrigel culture of MDA-MB231 triple negative breast cancer cells (growth, invasive branching, viability); format: cell-based; details: 1 μM, 3 days, 3D cultures (FIG. 6)
Description: FIG. 6a. PTK6 degraders, but not kinase activity inhibitor suppress viability in 3D cultures. MDA-MB231 triple negative breast cancer cells were seeded into 3D Matrigel cultures (4×10^3 cells/well) and treated with indicated PTK6 degraders, negative control compounds or PTK6 kinase activity inhibitor at 1 uM for 5 days with re-feeding of compound after 3 days in culture. Viability was assessed using 3D Cell Titer glo (Promega). FIG. 6b. Expression of PTK6 in cells treated with PTK6 degraders, negative control compounds or PTK6 kinase activity inhibitor was assessed after 24 hour treatment in monolayer cultures with 1 uM of compound. Cells were lysed and proteins were resolved and probed with anti-PTK6 antibody (Cell Signaling)
FIG. 12a. […] Expression of PTK6 in cells treated with PTK6 degraders, negative control compounds or PTK6 kinase activity inhibitor was assessed after 24 hour treatment in monolayer cultures with 1 uM of compound. […] Viability was assessed using 3D Cell Titer glo (Promega). […]
MDA-MB231 triple negative breast cancer cells were seeded into 3D Matrigel cultures (4×10^3 cells/well) and treated with indicated PTK6 degraders, negative control compounds or PTK6 kinase activity inhibitor at 1 uM for 6 days with re-feeding of compound after 3 days in culture (FIG. 12B). Viability was assessed using 3D Cell Titer glo (Promega). […]

MCF7 cells = experiment: 3D Cell Titer Glo viability of MCF7 ER+ breast cancer cells; format: cell-based; details: 0, 1, 2 and 5 μM, 4 days, 3D Cell Titer Glo (FIG. 7)
Description: FIG. 7a. PTK6 degrader treatment suppresses growth of ER+ breast cancer cells. ER+ breast cancer cells (MCF-7) were treated with indicated concentrations of top candidate degraders, negative control compounds or PTK6 kinase activity inhibitor for 24 hours, lysed and proteins were resolved by SDS-PAGE. PTK6 expression was interrogated by Western analysis. FIG. 7b. MCF-7 cells were seeded into 3D Matrigel cultures and treated with indicated PTK6 degraders or PTK6 kinase inhibitor for 4 days. Viability was quantified using 3-D Cell Titer glo (Promega).
MCF7 cells were treated with YX39-103, YX39-105, and compound 21d at 0, 1, 2 and 5 μM for 4 days using 3D Cell Titer Glo (Promega) assay conditions.
MDA-MB231, MCF-7, OV2008 and Hey C2 cells (3,000 cells) were added to 8-well chamber slides (BD Biosciences) coated with 50 μl of growth factor-reduced Matrigel™ Matrix basement membrane (Corning). Treatment with degrader was begun later the same day. Media was replaced every 3 days. Cells were imaged using the Axiovert 25 inverted microscope (Carl Zeiss AB). CellTiter-Glo 3D Cell Viability Assay (Promega) was used to quantitate viability of cells grown in Matrigel™ in 96-well plates.

CP70 cells = experiment: 3D culture viability of platinum resistant ovarian cancer cells CP70; format: cell-based; details: 2 uM, 6 days, 3D culture (FIG. 8)
Description: FIG. 8. Treatment with PTK6 degraders, but not kinase activity inhibitor, suppress viability of chemotherapy-resistant ovarian cancer cells (CP70). Cells were seeded into 3D Matrigel cultures and treated with compounds (2 uM) for 6 days. Viability was assessed using 3D Cell Titre glo assay (Promega)
Platinum resistant ovarian cancer cells CP70 were treated with PTK6 degrader or kinase inhibitor P21d (2 uM) for 6 days in 3D culture. Viability after 6 days was assessed by 3D Cell Titer glo.

PTK6 [2] = target: T1, PTK6; experiment: PTK6 degradation after MG132 proteasome inhibitor pretreatment (Western); format: cell-based; details: MDA-MB231 cells, MG132 10 uM 2 hours, then degrader 4 hours (FIG. 9)
Description: FIG. 9. PTK6 degrader suppresses PTK6 expression in a proteasome-dependent manner. MDA-MB231 cells (left) or OV2008 cells (right) were pre-treated with DMSO or MG-132 (10 uM) for two hours, then treated for an additional 4 hours with DMSO or PTK6 degrader at the indicated concentrations.
MDA-MB231 cells were pre-treated with MG132 (10 uM) or DMSO for 2 hours, then treated for additional 4 hours with PTK6 degrader YX39-105 or DMSO. Cells were lysed and expression of PTK6 was assessed by Western analysis.
as §1

PTK6 [3] = target: T1, PTK6; experiment: PTK6 degradation after PTK6 kinase inhibitor P21d pretreatment (Western); format: cell-based; details: MDA-MB231 cells, P21d 5 uM 2 hours, then degrader 24 hours (FIG. 10)
Description: FIG. 10. PTK6 kinase activity inhibitor pre-treatment prevents PTK6 degrader-dependent suppression of PTK6 expression. MDA-MB231 cells in monolayer cultures were pre-treated with DMSO or PTK6 kinase activity inhibitor (5 uM), then treated for an additional 24 hours with PTK6 degrader, YX39-105. Cells were lysed and expression of PTK6 was assessed by Western analysis.
MDA-MB231 cells pretreated with DMSO or PTK6 kinase activity inhibitor, P21d, (5 uM) for 2 hours were subsequently treated with PTK6 degrader YX39-105 for 24 hours. Expression of PTK6 was assessed by Western analysis.
as §1

TNBC cells = details: compared with PTK6 shRNA; cited from earlier work
[4] = compared with shRNA, all cell lines evaluated; cited from earlier work

T1 sequence (Q13882 whole entry): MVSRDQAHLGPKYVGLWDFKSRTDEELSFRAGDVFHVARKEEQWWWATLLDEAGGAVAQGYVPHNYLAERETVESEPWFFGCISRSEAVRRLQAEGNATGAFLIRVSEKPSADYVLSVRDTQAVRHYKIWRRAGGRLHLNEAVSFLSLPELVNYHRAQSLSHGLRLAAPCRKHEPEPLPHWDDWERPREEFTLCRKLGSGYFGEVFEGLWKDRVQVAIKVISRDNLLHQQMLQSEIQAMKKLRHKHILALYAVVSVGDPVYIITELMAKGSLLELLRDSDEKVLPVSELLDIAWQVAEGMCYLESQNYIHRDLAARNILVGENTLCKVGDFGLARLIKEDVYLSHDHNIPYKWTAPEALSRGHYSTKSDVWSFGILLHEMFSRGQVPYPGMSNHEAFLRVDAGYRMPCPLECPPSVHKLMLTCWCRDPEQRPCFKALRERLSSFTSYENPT

PTK6 degradation with MG132 pretreatment (PTK6 [2])	PTK6 degradation with PTK6 inhibitor pretreatment (PTK6 [3])	Compound	reducing PTK6 protein levels / suppress PTK6 expression (PTK6 [1])	growth and invasive branching in 3D cultures (MDA-MB231 cells)	viability of MCF7 cells (MCF7 cells)	viability of chemotherapy-resistant ovarian cells (CP70) (CP70 cells)	EMT regulation of TNBC cells (TNBC cells)	3D growth [4]
–	–	Cc1ncsc1-c1ccc(CNC(=O)[C@@H]2C[C@@H](O)CN2C(=O)[C@@H](NC(=O)CCCCCCNC(=O)CN2CCN(C(=O)c3ccc(Nc4nc(C5CC5)cn5c(-c6cn[nH]c6)cnc45)c(F)c3)CC2)C(C)(C)C)cc1 [YX39-103, (2S,4R)-1-((S)-2-(7-(2-(4-(4-((6-cyclopropyl-3-(1H-pyrazol-4-yl)imidazo[1,2-a]pyrazin-8-yl)amino)-3-fluorobenzoyl)piperazin-1-yl)acetamido)heptanamido)-3,3-dimethylbutanoyl)-4-hydroxy-N-(4-(4-methylthiazol-5-yl)benzyl)pyrrolidine-2-carboxamide]	effective in reducing PTK6 protein levels	significantly suppressed growth and invasive branching	significantly impaired viability of MCF7 cells in a dose-dependent manner	Suppressed Viability	–	–
Prevents PTK6 from being Degraded	Prevents PTK6 from being Degraded	Cc1ncsc1-c1ccc(CNC(=O)[C@@H]2C[C@@H](O)CN2C(=O)[C@@H](NC(=O)CCCCCCCCNC(=O)CN2CCN(C(=O)c3ccc(Nc4nc(C5CC5)cn5c(-c6cn[nH]c6)cnc45)c(F)c3)CC2)C(C)(C)C)cc1 [YX39-105, (2S,4R)-1-((S)-2-(9-(2-(4-(4-((6-cyclopropyl-3-(1H-pyrazol-4-yl)imidazo[1,2-a]pyrazin-8-yl)amino)-3-fluorobenzoyl)piperazin-1-yl)acetamido)nonanamido)-3,3-dimethylbutanoyl)-4-hydroxy-N-(4-(4-methylthiazol-5-yl)benzyl)pyrrolidine-2-carboxamide]	effective in reducing PTK6 protein levels	significantly suppressed growth and invasive branching	significantly impaired viability of MCF7 cells in a dose-dependent manner	Suppressed Viability	–	–
–	–	Cc1ncsc1-c1ccc(CNC(=O)[C@@H]2C[C@@H](O)CN2C(=O)[C@@H](NC(=O)COCCOCC(=O)NCCN2CCN(C(=O)c3ccc(Nc4nc(C5CC5)cn5c(-c6cn[nH]c6)cnc45)c(F)c3)CC2)C(C)(C)C)cc1 [YX79-65, (2S,4R)-1-((S)-2-(tert-butyl)-14-(4-(4-((6-cyclopropyl-3-(1H-pyrazol-4-yl)imidazo[1,2-a]pyrazin-8-yl)amino)-3-fluorobenzoyl)piperazin-1-yl)-4,11-dioxo-6,9-dioxa-3,12-diazatetradecanoyl)-4-hydroxy-N-(4-(4-methylthiazol-5-yl)benzyl)pyrrolidine-2-carboxamide]	potently suppress PTK6 expression	–	–	–	–	–
–	–	O=C(c1ccc(Nc2nc(C3CC3)cn3c(-c4cn[nH]c4)cnc23)c(F)c1)N1CCOCC1 [compound 21d]	–	–	–	–	phenocopied the effects of PTK6 shRNA	did not consistently phenocopy the effects of shRNA
